Columns and labels:
Type in all cases: in vivo
[1] = system: Chilo suppressalis (Striped Rice Stemborer); assay: Example B3: Chilo suppressalis (striped rice stemborer), artificial diet, L2 larvae; conditions: 144 h, application rate of 200 ppm, pipetting, 6 days after infestation, in comparison to untreated samples, read-out: control (at least one of mortality, anti-feedant effect, growth inhibition)
Method: Example B3: Chilo suppressalis (Striped Rice Stemborer)
24-well microtiter plates with artificial diet were treated with aqueous test solutions prepared from 10′000 ppm DMSO stock solutions by pipetting. After drying, the plates were infested with L2 larvae (6-8 per well). The samples were assessed for mortality, anti-feeding effect, and growth inhibition in comparison to untreated samples 6 days after infestation. Control of Chilo suppressalis by a test sample is given when at least one of the categories mortality, anti-feedant effect, and growth inhibition is higher than the untreated sample.

[2] = system: Diabrotica Balteata (Corn Root Worm); assay: Example B1: Diabrotica balteata (corn root worm), maize sprouts sprayed, L2 larvae; conditions: 96 h, application rate of 200 ppm, 4 days after infestation, in comparison to untreated samples, read-out: effect in at least one of the two categories (mortality or growth inhibition)
Method: Example B1: Diabrotica Balteata (Corn Root Worm)
Maize sprouts placed onto an agar layer in 24-well microtiter plates were treated with aqueous test solutions prepared from 10′000 ppm DMSO stock solutions by spraying. After drying, the plates were infested with L2 larvae (6 to 10 per well). The samples were assessed for mortality and growth inhibition in comparison to untreated samples 4 days after infestation.
The following compounds gave an effect of at least 80% in at least one of the two categories (mortality or growth inhibition) at an application rate of 200 ppm: […]

[3] = system: Plutella xylostella (Diamond Back Moth); assay: Example B4: Plutella xylostella (diamond back moth), 24-well artificial diet, eggs; conditions: 192 h, application rate of 200 ppm, pipetting, 8 days after infestation, in comparison to untreated samples, read-out: effect in at least one of the two categories (mortality or growth inhibition)
Method: Example B4: Plutella xylostella (Diamond Back Moth)
24-well microtiter plates with artificial diet were treated with aqueous test solutions prepared from 10′000 ppm DMSO stock solutions by pipetting. After drying, Plutella eggs were pipetted through a plastic stencil onto a gel blotting paper and the plate was closed with it. The samples were assessed for mortality and growth inhibition in comparison to untreated samples 8 days after infestation. The following compounds gave an effect of at least 80% in at least one of the two categories (mortality or growth inhibition) at an application rate of 200 ppm: […]

[4] = system: Spodoptera littoralis (Egyptian Cotton Leaf Worm); assay: Example B5: Spodoptera littoralis (Egyptian cotton leaf worm), cotton leaf discs sprayed, L1 larvae; conditions: foliar, 72 h, application rate of 200 ppm, 3 days after infestation, in comparison to untreated samples, read-out: control (at least one of mortality, anti-feedant effect, growth inhibition)
Method: Example B5: Spodoptera littoralis (Egyptian Cotton Leaf Worm)
Cotton leaf discs were placed onto agar in 24-well microtiter plates and sprayed with aqueous test solutions prepared from 10′000 ppm DMSO stock solutions. After drying the leaf discs were infested with five L1 larvae. The samples were assessed for mortality, anti-feeding effect, and growth inhibition in comparison to untreated samples 3 days after infestation. Control of Spodoptera littoralis by a test sample is given when at least one of the categories mortality, anti-feedant effect, and growth inhibition is higher than the untreated sample.

[5] = system: Plutella xylostella (Diamondback Moth); assay: Example B7: Plutella xylostella (diamondback moth), 96-well artificial diet, eggs; conditions: 216 h, application rate of 500 ppm, eggs (~30 per well), 9 days after infestation, read-out: control (samples assessed for mortality)
Method: Example B7: Plutella xylostella (Diamondback Moth)
96-well microtiter plates containing artificial diet were treated with aqueous test solutions, prepared from 10′000 ppm DMSO stock solutions, by a liquid handling robot. After drying, eggs (˜30 per well) were infested onto a netted lid which was suspended above the diet. The eggs hatch and L1 larvae move down to the diet. The samples were assessed for mortality 9 days after infestation.

C[C@@H](c1ncnn1-c1ccc(C#N)cn1)N(C)c1nnc2c(C(F)(F)F)cc(C(F)(F)F)cn12 [Compound P1, 6-[5-[(lS)-1-[[6.8-bis(trifluoromethyl)-[1,2,4]triazolo[4,3-a]pyridin-3-yl]-methyl-amino]ethyl]-1,2,4-triazol-1-yl]pyridine-3-carbonitrile]
≥ 80%: percent control (mortality, anti-feedant effect or growth inhibition) at 200 ppm [1] | percent effect (mortality or growth inhibition) at 200 ppm [2] | percent effect (mortality or growth inhibition) at 200 ppm [3]

C[C@H](Nc1nnc2c(C(F)(F)F)cc(C(F)(F)F)cn12)c1ncnn1-c1ccc(C#N)cn1 [Compound P2, 6-[5-[(1S)-1-[[6,8-bis(trifluoromethyl)-[1,2,4]triazolo[4,3-a]pyridin-3-yl]amino]ethyl]-1,2,4-triazol-1-yl]pyridine-3-carbonitrile]
≥ 80%: percent control (mortality, anti-feedant effect or growth inhibition) at 200 ppm [1] | percent effect (mortality or growth inhibition) at 200 ppm [2] | percent effect (mortality or growth inhibition) at 200 ppm [3] | percent control (mortality, anti-feedant effect or growth inhibition) at 200 ppm [4]

CC(Nc1nnc2c(C(F)(F)F)cc(C(F)(F)F)cn12)c1ncnn1-c1ccc(C#N)cn1 (stereo not shown) [Compound P3, 6-[5-[1-[[6,8-bis(trifluoromethyl)-[1,2,4]triazolo[4,3-a]pyridin-3-yl]amino]ethyl]-1,2,4-triazol-1-yl]pyridine-3-carbonitrile]
≥ 80%: percent control (mortality, anti-feedant effect or growth inhibition) at 200 ppm [1] | percent effect (mortality or growth inhibition) at 200 ppm [2] | percent effect (mortality or growth inhibition) at 200 ppm [3] | percent control (mortality, anti-feedant effect or growth inhibition) at 200 ppm [4]

CC(Nc1nnc2c(C(F)(F)F)cc(C(F)(F)F)cn12)c1ncnn1-c1ccc(Br)cn1 (stereo not shown) [Compound P4, N-[1-[2-(5-bromo-2-pyridyl)-1,2,4-triazol-3-yl]ethyl]-6,8-bis(trifluoromethyl)-[1,2,4]triazolo[4,3-a]pyridin-3-amine]
≥ 80%: percent control (mortality, anti-feedant effect or growth inhibition) at 200 ppm [1] | percent effect (mortality or growth inhibition) at 200 ppm [2] | percent effect (mortality or growth inhibition) at 200 ppm [3] | percent control (mortality, anti-feedant effect or growth inhibition) at 200 ppm [4]

CC(Nc1nnc2c(C(F)(F)F)cc(Br)cn12)c1ncnn1-c1ccc(Br)cn1 (stereo not shown) [Compound P5, 6-bromo-N-[1-[2-(5-bromo-2-pyridyl)-1,2,4-triazol-3-yl]ethyl]-8-(trifluoromethyl)-[1,2,4]triazolo[4,3-a]pyridin-3-amine]
≥ 80%: percent control (mortality, anti-feedant effect or growth inhibition) at 200 ppm [1] | percent effect (mortality or growth inhibition) at 200 ppm [2] | percent effect (mortality or growth inhibition) at 200 ppm [3]

CC(Nc1nnc2c(C(F)(F)F)cc(Br)cn12)c1ncnn1-c1ccc(C#N)cn1 (stereo not shown) [Compound P6, 6-[5-[1-[[6-bromo-8-(trifluoromethyl)-[1,2,4]triazolo[4,3-a]pyridin-3-yl]amino]ethyl]-1,2,4-triazol-1-yl]pyridine-3-carbonitrile]
≥ 80%: percent control (mortality, anti-feedant effect or growth inhibition) at 200 ppm [1] | percent effect (mortality or growth inhibition) at 200 ppm [3] | percent control (mortality, anti-feedant effect or growth inhibition) at 200 ppm [4]

CC(Nc1nnc2c(C(F)(F)F)cc(Br)cn12)c1ncnn1-c1ncccn1 (stereo not shown) [Compound P7, 6-bromo-N-[1-(2-pyrimidin-2-yl-1,2,4-triazol-3-yl)ethyl]-8-(trifluoromethyl)-[1,2,4]triazolo[4,3-a]pyndin-3-amine]
≥ 80%: percent control (mortality, anti-feedant effect or growth inhibition) at 200 ppm [1]

CC(Nc1nnc2c(Cl)cc(C(F)(F)F)cn12)c1ncnn1-c1ccc(C#N)cn1 (stereo not shown) [Compound P8, 6-[5-[1-[[8-chloro-6-(trifluoromethyl)-[1,2,4]triazolo[4,3-a]pyridin-3-yl]amino]ethyl]-1,2,4-triazol-1-yl]pyridine-3-carbonitrile]
≥ 80%: percent control (mortality, anti-feedant effect or growth inhibition) at 200 ppm [1] | percent effect (mortality or growth inhibition) at 200 ppm [2] | percent effect (mortality or growth inhibition) at 200 ppm [3] | percent control (mortality, anti-feedant effect or growth inhibition) at 200 ppm [4]

CC(Nc1nnc2c(Cl)cc(C(F)(F)F)cn12)c1ncnn1-c1ncccn1 (stereo not shown) [Compound P9, 8-chloro-N-[1-(2-pyrimidin-2-yl-1,2,4-triazol-3-yl)ethyl]-6-(trifluoromethyl)-[1,2,4]triazolo[4,3-a]pyridin-3-amine]
≥ 80%: mortality at 500 ppm [5] | percent control (mortality, anti-feedant effect or growth inhibition) at 200 ppm [1]

Source: patent US20230142606A1, “PESTICIDALLY ACTIVE FUSED BICYCLIC HETEROAROMATIC AMINO COMPOUNDS” (SYNGENTA CROP PROTECTION AG, priority 2020, published 2023)
